{"source": "patent US20130008801A1", "about": "“METHODS AND COMPOSITIONS FOR APPLICATIONS RELATED TO MICROBIOLOGICALLY INFLUENCED CORROSION” (priority 2010, published 2013)", "key": {"[1]": {"test_system": "planktonic or sessile SRB", "assay": "SRB growth in the culture medium with MIC promoter", "format": "cell-based, Desulfovibrio desulfuricans (ATCC 7757)", "details": "culture medium used in this work; repeated experiments", "from_the_text": "Second, the BCSR theory points to the existence of “MIC promoters.” Guided by this, we have successfully found a class of chemicals that can greatly accelerate BCSR leading to much more severe MIC pitting. […] This discovery leads to a new aspect of MIC monitoring, and a non-biocidal mitigation method that may even allow us to live with corrosive microbes with much reduced MIC pitting when the promoter's MIC acceleration effect is inhibited.\n(§1) The BCSR theory indicates a bottleneck in MIC due to SRB. To resolve the bottleneck, an electron carrier or mediator was added as an MIC “promoter” into 100 ml anaerobic vials containing SRB and carbon steel coupons. This MIC promoter is not corrosive by itself. After a week of SRB growth, coupons were examined using SEM and IFM (Infinite Focus Microscopy). Desulfovibrio desulfuricans ATCC7757 was used to represent SRB in this work. […] Liquid medium was deoxygenated using nitrogen sparging. To study the pits on a carbon steel coupon, the coupon surface was cleaned using an acid solution before SEM and IFM."}, "[2]": {"test_system": "Desulfovibrio desulfuricans ATCC7757 (SRB) on carbon steel coupons", "assay": "MIC pitting test: SRB with carbon steel coupons in anaerobic vials, pits examined by SEM and IFM", "format": "cell-based, Desulfovibrio desulfuricans (ATCC 7757)", "details": "promoter added to the test medium at a low concentration; C1018 carbon steel coupon, ATCC 1249 medium, 37° C., 7 days; versus no promoter (FIG. 2)", "experimental": "Y-axis is pit depth in microns and x-axis pit position in microns.\nas §1"}}, "data": [{"smiles": "Cc1cc2nc3c(=O)[nH]c(=O)nc-3n(C[C@H](O)[C@H](O)[C@H](O)CO)c2cc1C", "note": "[riboflavin]", "values": [{"measurement": "planktonic or sessile SRB growth", "setting": "[1]", "result": "did not promote planktonic or sessile SRB growth"}, {"measurement": "MIC pit depth", "setting": "[2]", "result": "dramatic MIC pit depth increase"}]}]}
